Source: PubChem BioAssay AID248 (DTP/NCI, 2004)
Several values for one entry are separate records, joined by “and”; a condition that tells them apart may be missing. Identical values can stand only once. Inconclusive results and toxic doses are left out. Rule as the data show it: active = T/C of 150% or more; inactive = T/C below 125%.

Tested on: L1210 leukemia ip in BDF1 mice, survival T/C
Assay: NCI In Vivo Anticancer Drug Screen. Data for tumor model L1210 Leukemia (intraperitoneal) in B6D2F1 (BDF1) mice
Details: endpoint: mean survival time, higher = longer survival
Outline: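 Transplanted-tumor mice were given test agent; controls received vehicle only. Survival readings from the two groups were divided (treated over control).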

[1] = dose: 100.0 mg/kg/injection, schedule: Q04DX003 (ip), vehicle: saline
[2] = dose: 200.0 mg/kg/injection, schedule: Q04DX003 (ip), vehicle: saline
[3] = dose: 400.0 mg/kg/injection, schedule: Q04DX003 (ip), vehicle: saline
[4] = dose: 100.0 mg/kg/injection, schedule: Q01DX009 (ip), vehicle: saline with Tween-80
[5] = dose: 200.0 mg/kg/injection, schedule: Q01DX009 (ip), vehicle: saline with Tween-80
[6] = dose: 400.0 mg/kg/injection, schedule: Q01DX009 (ip), vehicle: saline with Tween-80
[7] = dose: 100.0 mg/kg/injection, schedule: Q04DX003 (ip), vehicle: Klucel (hydroxypropylcellulose) (HPC)
[8] = dose: 200.0 mg/kg/injection, schedule: Q04DX003 (ip), vehicle: Klucel (hydroxypropylcellulose) (HPC)
[9] = dose: 400.0 mg/kg/injection, schedule: Q04DX003 (ip), vehicle: Klucel (hydroxypropylcellulose) (HPC)
[10] = dose: 100.0 mg/kg/injection, schedule: Q04DX002 (ip), vehicle: saline with Tween-80
[11] = dose: 200.0 mg/kg/injection, schedule: Q04DX002 (ip), vehicle: saline with Tween-80
[12] = dose: 400.0 mg/kg/injection, schedule: Q04DX002 (ip), vehicle: saline with Tween-80
[13] = dose: 100.0 mg/kg/injection, schedule: Q01DX001 (ip), vehicle: carboxymethylcellulose (CMC)
[14] = dose: 200.0 mg/kg/injection, schedule: Q01DX001 (ip), vehicle: carboxymethylcellulose (CMC)
[15] = dose: 400.0 mg/kg/injection, schedule: Q01DX001 (ip), vehicle: carboxymethylcellulose (CMC)
[16] = dose: 100.0 mg/kg/injection, schedule: Q01DX009 (ip), vehicle: Klucel (hydroxypropylcellulose) (HPC)
[17] = dose: 100.0 mg/kg/injection, schedule: Q04DX002 (ip), vehicle: Klucel (hydroxypropylcellulose) (HPC)
[18] = dose: 200.0 mg/kg/injection, schedule: Q01DX009 (ip), vehicle: Klucel (hydroxypropylcellulose) (HPC)
[19] = dose: 200.0 mg/kg/injection, schedule: Q04DX002 (ip), vehicle: Klucel (hydroxypropylcellulose) (HPC)
[20] = dose: 400.0 mg/kg/injection, schedule: Q01DX009 (ip), vehicle: Klucel (hydroxypropylcellulose) (HPC)

Measured: T/C

O=C(Nc1ccc(C(=O)O)c(O)c1)c1ccccc1
inactive: dose: 100.0 mg/kg/injection, schedule: Q01DX001 (ip), vehicle: acetone 96 % of control | dose: 100.0 mg/kg/injection, schedule: Q04DX003 (ip), vehicle: saline sonified 98 % of control | dose: 200.0 mg/kg/injection, schedule: Q01DX001 (ip), vehicle: acetone 97 % of control | dose: 200.0 mg/kg/injection, schedule: Q04DX003 (ip), vehicle: saline sonified 101 % of control | dose: 400.0 mg/kg/injection, schedule: Q01DX001 (ip), vehicle: acetone 97 % of control | dose: 400.0 mg/kg/injection, schedule: Q04DX003 (ip), vehicle: saline sonified 101 % of control

C=C(Cl)CSC(=N)N
inactive: dose: 10.0 mg/kg/injection, schedule: Q01DX009 (ip), vehicle: saline 109 % of control | dose: 12.0 mg/kg/injection, schedule: Q01DX009 (ip), vehicle: Klucel (hydroxypropylcellulose) (HPC) 88 % of control | dose: 20.0 mg/kg/injection, schedule: Q01DX009 (ip), vehicle: saline 101 % of control | dose: 25.0 mg/kg/injection, schedule: Q01DX009 (ip), vehicle: Klucel (hydroxypropylcellulose) (HPC) 103 % of control | [1] 108 % of control | [2] 106 % of control | [3] 104 % of control

CCOC(=O)C1OC12c1cccc3cccc(c13)C21OC1C(=O)OCC (stereo not drawn)
inactive: [4] 92 % of control | [5] 90 % of control | [6] 98 % of control

COc1cc2c3c(c1)/C(=N\NC(N)=O)CCN3CCC2
inactive: [7] 98 % of control | [8] 103 % of control | [9] 108 % of control

CC(C)(C)c1cc(NS(=O)(=O)c2ccccc2)c(N=[N+]=[N-])c(Cl)c1NS(=O)(=O)c1ccccc1
inactive: [10] 102 % of control | [11] 91 % of control | [12] 102 % of control

OC1C2CCC(C2)[CH]1[Hg][Cl] (stereo not drawn)
inactive: dose: 15.0 mg/kg/injection, schedule: Q01DX001 (ip), vehicle: carboxymethylcellulose (CMC) 95 % of control

O=C1C(N2CCOCC2)=C(N2CC2)C(=O)C(N2CCOCC2)=C1N1CC1
inactive: dose: 0.19 mg/kg/injection, schedule: Q04DX003 (ip), vehicle: saline 92 % of control and 102 % of control | dose: 0.37 mg/kg/injection, schedule: Q04DX003 (ip), vehicle: saline 94 % of control and 107 % of control | dose: 0.75 mg/kg/injection, schedule: Q01DX009 (ip), vehicle: saline 105 % of control and 118 % of control | dose: 0.75 mg/kg/injection, schedule: Q04DX003 (ip), vehicle: saline 107 % of control and 113 % of control | dose: 1.5 mg/kg/injection, schedule: Q01DX009 (ip), vehicle: saline 120 % of control | dose: 1.5 mg/kg/injection, schedule: Q04DX003 (ip), vehicle: saline 105 % of control | dose: 3.0 mg/kg/injection, schedule: Q04DX003 (ip), vehicle: saline 122 % of control | dose: 3.12 mg/kg/injection, schedule: Q01DX001 (ip), vehicle: saline 86 % of control | dose: 12.0 mg/kg/injection, schedule: Q04DX003 (ip), vehicle: saline 115 % of control

CCCCCCCCCCCCCCCCCBr
inactive: dose: 50.0 mg/kg/injection, schedule: Q01DX001 (ip), vehicle: carboxymethylcellulose (CMC) 110 % of control | [13] 95 % of control | [14] 93 % of control | [15] 95 % of control

ClC1=C(Br)C(Br)(Br)C(=C(Br)Br)C1(Br)Br
inactive: dose: 100.0 mg/kg/injection, schedule: Q01DX009 (ip), vehicle: saline sonified 96 % of control | [7] 106 % of control | dose: 200.0 mg/kg/injection, schedule: Q01DX009 (ip), vehicle: saline sonified 94 % of control | [8] 103 % of control | dose: 400.0 mg/kg/injection, schedule: Q01DX009 (ip), vehicle: saline sonified 102 % of control | [9] 97 % of control

O=C(CC(O)(C(F)(F)F)C(F)(F)F)c1ccc(-c2ccccc2)cc1
inactive: dose: 50.0 mg/kg/injection, schedule: Q01DX009 (ip), vehicle: saline with Tween-80 96 % of control | dose: 50.0 mg/kg/injection, schedule: Q04DX003 (ip), vehicle: saline with Tween-80 101 % of control | [4] 98 % of control | dose: 100.0 mg/kg/injection, schedule: Q04DX003 (ip), vehicle: saline with Tween-80 104 % of control | [5] 100 % of control | dose: 200.0 mg/kg/injection, schedule: Q04DX003 (ip), vehicle: saline with Tween-80 97 % of control | [6] 101 % of control | dose: 400.0 mg/kg/injection, schedule: Q04DX003 (ip), vehicle: saline with Tween-80 93 % of control

O=C(O)c1ccccc1Nc1ccccc1[N+](=O)[O-]
inactive: dose: 100.0 mg/kg/injection, schedule: Q01DX005 (ip), vehicle: Klucel (hydroxypropylcellulose) (HPC) 90 % of control | [16] 87 % of control | [17] 93 % of control | dose: 200.0 mg/kg/injection, schedule: Q01DX005 (ip), vehicle: Klucel (hydroxypropylcellulose) (HPC) 94 % of control | [18] 102 % of control | [19] 100 % of control | dose: 400.0 mg/kg/injection, schedule: Q01DX005 (ip), vehicle: Klucel (hydroxypropylcellulose) (HPC) 105 % of control | [20] 94 % of control | dose: 400.0 mg/kg/injection, schedule: Q04DX002 (ip), vehicle: Klucel (hydroxypropylcellulose) (HPC) 96 % of control

CC(C)Nc1ccc(O)cc1
inactive: [17] 106 % of control | [19] 95 % of control

CC1(C)CC([NH-])CC(C)(C)N1O.CC1(C)CC([NH-])CC(C)(C)N1O.[Cl][Pd][Cl]
inactive: [1] 94 % of control | [2] 105 % of control | [3] 90 % of control

Cc1ccc([P+](Cc2ccc(Cl)cc2Cl)(c2ccc(C)cc2)c2ccc(C)cc2)cc1
inactive: dose: 6.25 mg/kg/injection, schedule: Q04DX003 (ip), vehicle: Klucel (hydroxypropylcellulose) (HPC) 103 % of control | dose: 12.5 mg/kg/injection, schedule: Q04DX003 (ip), vehicle: Klucel (hydroxypropylcellulose) (HPC) 92 % of control

CSc1ncnc2c1ncn2/N=C/c1ccccc1
inactive: [13] 96 % of control | [14] 95 % of control | [15] 96 % of control

O=C(Nc1ccccc1C(F)(F)F)Oc1ccc(Cl)cc1Cc1ccccc1
inactive: [4] 93 % of control | [10] 117 % of control | [5] 101 % of control | [11] 98 % of control | [6] 101 % of control | [12] 98 % of control

CN(C)N=Nc1ccccc1C#N
inactive: dose: 50.0 mg/kg/injection, schedule: Q01DX009 (ip), vehicle: Klucel (hydroxypropylcellulose) (HPC) 103 % of control | [16] 108 % of control | [7] 112 % of control | [18] 113 % of control | [8] 113 % of control | [20] 105 % of control and 120 % of control | [9] 107 % of control

CCCC(=O)C(CC)C(=O)Nc1ccccc1 (stereo not drawn)
inactive: dose: 50.0 mg/kg/injection, schedule: Q04DX003 (ip), vehicle: Klucel (hydroxypropylcellulose) (HPC) 100 % of control | [13] 94 % of control | [7] 93 % of control | [14] 105 % of control | [8] 102 % of control | [15] 100 % of control
